According to PubChem BioAssay (NCI):
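Interpolation was linear, between the two tested concentrations surrounding the appropriate level; five concentrations were tested over 48 hours in 96-well plates. Here, GI50 denotes the concentration required for 50% inhibition of growth. Definition used: TGI = concentration required for complete inhibition of growth.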

Experiments:
Assay in all cases: NCI tumour cell line growth inhibition, 48 h
DMS 114 small cell lung = system: DMS 114 small cell lung
RXF-631 renal = system: RXF-631 renal
M19-MEL melanoma = system: M19-MEL melanoma
DLD-1 colon = system: DLD-1 colon
KM20L2 colon = system: KM20L2 colon
HOP-18 NSCLC = system: HOP-18 NSCLC
LXFL 529 NSCLC = system: LXFL 529 NSCLC
MDA-N = system: MDA-N
SN12K1 renal = system: SN12K1 renal
P388 leukemia = system: P388 leukemia
MCF7 breast = system: MCF7 breast

SMILES | TGI (DMS 114 small cell lung) | TGI (RXF-631 renal) | TGI (M19-MEL melanoma) | TGI (DLD-1 colon) | TGI (KM20L2 colon) | TGI (HOP-18 NSCLC) | TGI (LXFL 529 NSCLC) | GI50 (MDA-N) | TGI (MDA-N) | TGI (SN12K1 renal) | TGI (P388 leukemia) | GI50 (MCF7 breast) | TGI (MCF7 breast)
Cc1nnc(N=Nc2c(O)[nH]c3ccccc23)n1N | > 100000 nM | > 100000 nM | > 100000 nM | > 100000 nM | > 100000 nM | > 100000 nM | > 100000 nM | – | – | – | – | – | –
CC[C@@]1(O)C(=O)OCc2c1cc1n(c2=O)Cc2cc3c(N)cccc3nc2-1 | 121 nM | 1690 nM | 654 nM | > 51700 nM | 4020 nM | 7640 nM | 2980 nM | 333 nM | > 33800 nM | 1340 nM | 300 nM | 4.82 nM | 4850 nM
